Measured values as given in patent publication US20220280423A1, “GLYMPHATIC DELIVERY BY MANIPULATING PLASMA OSMOLARITY” (University of Rochester, priority 2018, published 2022).

What was measured:
[1] = Radioisotope influx (brain uptake of CSF-delivered tracers); conditions: 30 min
Method: Fluorescent tracers and antibodies were infused in a total volume of 10 μl at a rate of 2 μl/min or 1 μl/min into the cisterna magna. Radioisotope tracers were infused in a total volume of 5 μl at 1 μl/min.
Radioisotope Influx. […] After 30 min, animals were rapidly decapitated, the skull and dura removed, and the brain harvested. Brain radioactivity was normalized to the total radioactivity detected in a 5 μL aliquot put directly into a scintillation vial immediately before intracisternal injection. All brain tissue was weighed and solubilized in 0.5 mL tissue solubilizer (Solvable, PerkinElmer) overnight. Upon solubilization, 5 mL of scintillation cocktail was added (Ultima Gold, PerkinElmer). The injectate controls were treated in the same way as the tissue samples. All samples were analyzed by liquid scintillation spectrometry using a scintillation counter (LS 6500 Multipurpose Scintillation Counter, Beckman Coulter). The radioactivity (disintegrations per minute: dpm) remaining in the brain after injection (percent of injected dose: %ID) was determined as
where Rb is the radioactivity remaining in the brain at the end of the experiment and Ri is the radioactivity in the injectate controls for each experiment. Influx percentage was deduced as % ID. […]

[2] = Plasma osmolality after intraperitoneal injection; type: in vivo, C57BL/6 mice; conditions: i.p., KX-anesthetized mice, lasting 30 minutes
Method: Solutions. Control mice received isosmotic saline ([…]; 20 μL/g, i.p.). Hyperosmolality was induced either with mannitol (1M in 0.34M NaCl; 30 μL/g, i.p.) or hypertonic saline (1M NaCl in ddH2O; 20 μL/g, i.p.). Thirty minutes after intraperitoneal injection, a plasma sample was taken, and the mouse decapitated. Plasma osmolality was measured in triplicate using a micro-osmometer (Advanced Instruments).

glymphatic CSF influx [3] = experiment: Transcranial macroscopic imaging of CSF tracer (BSA-647) influx, plasma hypertonicity in KX-anesthetized mice; type: in vivo, C57BL/6 mice
Method: Intracisternal injections. Mice in the KX groups were weighed and anesthetized with a mixture of ketamine (100 mg/kg, i.p.) and xylazine (10 mg/kg, i.p.). Afterwards, animals were fixed in a stereotaxic frame, and the cisterna magna was surgically exposed with the help of a stereomicroscope. The cisternal space was cannulated using a 30 G needle attached via polyethylene tubing to a Hamilton syringe. The needle was secured with cyanoacrylate glue and tracers were infused with a syringe pump (Harvard Apparatus) depending on the experimental paradigm (see below). Mice randomized to the awake group were anesthetized with 2% isoflurane, their skull cemented to a customized head plate, placed in a restraint tube, and then underwent the same surgical procedure as described above. Tracers were allowed to circulate for 30 min after the injection start time and the needle left in place for the duration of the experiment to prevent the CSF compartment from depressurizing. Core temperature (37° C.) and anesthetic depth were maintained throughout the experiment. At the end of 30 min, animals were decapitated, and the brain processed for either fluorescent or radioisotope tracer analysis.
CSF Tracers. AlexaFluor647-conjugated bovine serum albumin (BSA-647, 66 kDa, Invitrogen) was constituted in artificial CSF (0.5% m/v) and used as a fluorescent CSF tracer. […] Fluorescent tracers and antibodies were infused in a total volume of 10 μl at a rate of 2 μl/min or 1 μl/min into the cisterna magna.
Transcranial In vivo Macroscopic Imaging. For in vivo imaging, the skin covering the dorsal calvarium was incised and reflected laterally prior to cannulating the cisterna magna. The entry of CSF tracers into the brain was imaged by fluorescence macroscopy (MVX10, Olympus) using a PRIOR Lumen 1600-LED light source and Flash 4.0 digital camera (Hamamatsu). The mouse fixed on the stereotaxic frame was placed on the microscope stage and images at 20× magnification were acquired in the far-red emission channel (647 nm). Images (2048×2048 pixel; 5.7120 μm/pixel) were collected at 1 min intervals for 0-30 min following injection commencement using the MetaMorph Basic imaging software (Molecular Devices). Exposure time was held constant throughout the duration of the imaging sequence and across experimental groups.
Front tracking. To quantify the area and speed of fluorescent CSF tracer influx in the brain, inventors employed an algorithm recently developed in the context of advection-reaction-diffusion (56). Given a time series of a two-dimensional concentration field, this algorithm tracked the location of the “front” which separates low-concentration and high-concentration regions. The algorithm outputs spatially- and temporally-resolved velocity measurements quantifying the front propagation. Influx speed was calculated by averaging over the entire group data to obtain mean front speed measurements for each group. The propagation front was identified using a threshold of 175 (on an 8-bit scale of 0 to 255); however, it was noted that the results were fairly robust to different threshold choices. This same threshold was used for all-time series of images, which was justified since care was taken to maintain similar imaging conditions across all experiments. A fixed threshold preserved the physical meaning of the front and allowed for quantitative comparison between populations from different experiments.
Solutions. Control mice received isosmotic saline (0.34M NaCl in ddH2O; 20 μL/g, i.p.).

[4] = Intracranial pressure, arterial blood pressure and laser Doppler cerebral blood flow; type: in vivo, C57BL/6 mice
Excerpt: Intracranial and Arterial Blood Pressure Measurements. A separate group of animals were anesthetized with a mixture of ketamine/xylazine. Afterwards, a 30 G needle connected to rigid polyethylene tubing filled with aCSF was inserted into the cisterna magna as described above and an arterial catheter was placed in the femoral artery. The lines were connected to a pressure transducer and monitor (World Precision Instruments). Recordings were allowed to stabilize, and then recorded continuously for 35 min (5 min baseline and 30 min after i.p. injection). The signals were digitized and recorded with a DigiData 1440A digitizer and AxoScope software (Axon Instruments). The intracranial and mean arterial pressure recordings were processed and analyzed using MATLAB (MathWorks).
Laser Doppler Flowmetry. Relative changes in cerebral blood flow (rCBF) were measured using laser Doppler flowmetry (PF5010 Laser Doppler Perfusion Module with microtips, PR 418-1, Perimed). The tip of the fiber optic probe was fixed directly onto the exposed skull with cyanoacrylate glue. Signals were collected using a 1440A digitizer and AxoScope software (Axon Instruments). For each mouse, rCBF was recorded both 5 minutes before and 30 minutes after the administration of i.p. solutions. The rCBF recordings were processed and analyzed using MATLAB (MathWorks).
Consequently, assays were carried out to determine if tonicity-induced changes in one of these parameters might be responsible for the observed enhancement of glymphatic CSF influx. […] This net negative ICP resulted from the outflow of ISF across the BBB (FIG. 15D), and likely provided the necessary driving force to increase CSF influx to cerebral tissues. Importantly. this transfer of brain water to the vascular column occurred across an intact BBB (FIGS. 12A-C).

BBB = experiment: Assessment of BBB permeability (FITC-dextran extravasation); type: in vivo, C57BL/6 mice; conditions: anesthetized mice, 30 min after i.p. injection
Method: Assessment of BBB Permeability. For quantification of BBB disruption, a 1% solution of FITC-conjugated dextran (70 kDa; Sigma-Aldrich) in normal saline (4 mL/kg of body weight) was injected via the femoral vein. The dextran was allowed to circulate for 30 min following plasma tonicity manipulations, at which point a plasma sample was taken and the mice were perfusion-fixed as described below. Positive controls received a 2M mannitol infusion via a catheter in the right external carotid artery (0.64 mL/min for 30 seconds) 5 minutes after the dextran. The brains were harvested, sectioned, and FITC extravasation was imaged and quantified (see below). Plasma concentration of the FITC dextran was calculated by diluting the plasma samples 1:4 with PBS and analyzing them in triplicate on a fluorescence microplate reader (SpectraMax M2, Molecular Devices) at 458 nm excitation, 538 nm emission, with a cutoff above 530 nm at room temperature (24° C.). Dextran concentration was estimated by comparing the relative fluorescence of the samples against a standard curve (0.0-1.0 mg/mL, 0.1 mg/mL steps; FITC-dextran 70 kDa in PBS) fitted with a linear regression. Blood samples with hemolysis were excluded from analysis due to interference with spectrophotometric absorbance readings.
Image Analysis. All images were analyzed using ImageJ software (National Institutes of Health, imagej.nih.gov/ij/) (60). […]

glymphatic CSF influx [5] = experiment: Transcranial macroscopic imaging of CSF tracer (BSA-647) influx, plasma hypertonicity in awake mice; type: in vivo, C57BL/6 mice
Method: Intracisternal injections. Mice in the KX groups were weighed and anesthetized with a mixture of ketamine (100 mg/kg, i.p.) and xylazine (10 mg/kg, i.p.). Afterwards, animals were fixed in a stereotaxic frame, and the cisterna magna was surgically exposed with the help of a stereomicroscope. The cisternal space was cannulated using a 30 G needle attached via polyethylene tubing to a Hamilton syringe. The needle was secured with cyanoacrylate glue and tracers were infused with a syringe pump (Harvard Apparatus) depending on the experimental paradigm (see below). […]
Transcranial In vivo Macroscopic Imaging. […] The entry of CSF tracers into the brain was imaged by fluorescence macroscopy (MVX10, Olympus) using a PRIOR Lumen 1600-LED light source and Flash 4.0 digital camera (Hamamatsu). […]
Front tracking. To quantify the area and speed of fluorescent CSF tracer influx in the brain, inventors employed an algorithm recently developed in the context of advection-reaction-diffusion (56). […] The algorithm outputs spatially- and temporally-resolved velocity measurements quantifying the front propagation. Influx speed was calculated by averaging over the entire group data to obtain mean front speed measurements for each group. […] A fixed threshold preserved the physical meaning of the front and allowed for quantitative comparison between populations from different experiments. […]

With ^14C-inulin the “increase in the fractional tracer uptake to brain” value ([1]; plasma hyperosmolality (HTS or mannitol i.p.) vs isotonic) was “roughly 125%” and the “total injected tracer delivered to the brain parenchyma” value ([1]; plasma hyperosmolality (HTS or mannitol i.p.)) was “approximately 40%”.

In the case of OC[C@@H](O)[C@@H](O)[C@H](O)[C@H](O)CO [mannitol], the plasma osmolality [2] is reported as “significantly elevated”, the “reduction of the time to delivery of CSF tracer” value (glymphatic CSF influx [3]; KX-anesthetized mice, i.p.) is reported as “roughly half” and the “dorsal cortical surface covered by CSF tracer” value (glymphatic CSF influx [3]; KX-anesthetized mice, i.p., 30 min imaging) is reported as “approximately 60%”. For the same compound, the “increase in the influx area of CSF tracer” value (glymphatic CSF influx [3]; KX-anesthetized mice, i.p., vs isotonic controls) was “five-fold”, the “penetration of an intracisternally-delivered CSF tracer” value (glymphatic CSF influx [3]; intraperitoneal) was “doubled” and the “increase of influx speeds of CSF tracer” value (glymphatic CSF influx [3]; intraperitoneal, intracisternally-delivered CSF tracer) was “about 70%”. For the same compound, the “relative cerebral blood flow (rCBF)” value ([4]; 30-min recording after i.p.) was “slight reduction”, the “ICP relative to the isotonic controls” value ([4]; 30 min after i.p.) was “significantly and consistently declined” and the “mean arterial blood pressure (MAP)” value ([4]; anesthetized mice, i.p.) was “reduced”. The BBB permeability (BBB) was “no significant increase”, the “tracer influx rates across the entire dorsal cortex, faster than isotonic” value (glymphatic CSF influx [5]) was “roughly 1.5 fold” and the “increase in tracer influx area” value (glymphatic CSF influx [5]; at 30 min) was “circa 20 fold”.
